Laboratory results from patent US20230265151A1, “GIP/GLP1 CO-AGONIST COMPOUNDS” (priority 2020, published 2023).
Like-named read-outs stand apart in the source and are kept apart here.

How the values were obtained:
hGCGR = target: T1, hGCGR (Homo sapiens, UniProt P47871); assay: Functional cAMP formation (HTRF) in HEK-293 clonal cells expressing hGCGR, 0.1% bovine casein, without or with 1.0% human serum albumin; format: cell-based; details: cAMP, incubated at 37° C., 0.1% bovine casein (no human serum albumin), geometric mean
T1 construct: expressed in transfected cells
Description: (§1) After a 30-min incubation at 37° C., the resulting increase in intracellular cAMP is quantitatively determined using a CisBio cAMP Dynamic 2 HTRF Assay Kit (62AM4PEJ). Briefly, cAMP levels within the cell are detected by adding the cAMP-d2 conjugate in cell lysis buffer (10 µL) followed by the antibody anti-cAMP-Eu^3+-Cryptate, also in cell lysis buffer (10 µL). The resulting competitive assay is incubated for at least 60 min at room temperature, and then is detected using a PerkinElmer Envision® instrument with excitation at 320 nm and emission at 665 nm and 620 nm. Envision units (emission at 665 nm/620 nm* 10,000) are inversely proportional to the amount of cAMP present and are converted to nM cAMP per well us-ing a cAMP standard curve. […] A relative EC50 value and percent top (Emax) are derived by non-linear regression analysis using the percent maximal response vs. the concentration of peptide added, fitted to a four-parameter logistic equation.

hGIPR = target: T2, hGIPR (Homo sapiens, UniProt P48546); assay: Functional cAMP formation (HTRF) in HEK-293 clonal cells expressing hGIPR, 0.1% bovine casein, without or with 1.0% human serum albumin; format: cell-based; details: for Emax: 37° C., 0.1% bovine casein, arithmetic mean; for EC50: cAMP, incubated at 37° C., 0.1% bovine casein (no human serum albumin), geometric mean
T2 construct: expressed in transfected cells
T2 sequence (P48546 22-466): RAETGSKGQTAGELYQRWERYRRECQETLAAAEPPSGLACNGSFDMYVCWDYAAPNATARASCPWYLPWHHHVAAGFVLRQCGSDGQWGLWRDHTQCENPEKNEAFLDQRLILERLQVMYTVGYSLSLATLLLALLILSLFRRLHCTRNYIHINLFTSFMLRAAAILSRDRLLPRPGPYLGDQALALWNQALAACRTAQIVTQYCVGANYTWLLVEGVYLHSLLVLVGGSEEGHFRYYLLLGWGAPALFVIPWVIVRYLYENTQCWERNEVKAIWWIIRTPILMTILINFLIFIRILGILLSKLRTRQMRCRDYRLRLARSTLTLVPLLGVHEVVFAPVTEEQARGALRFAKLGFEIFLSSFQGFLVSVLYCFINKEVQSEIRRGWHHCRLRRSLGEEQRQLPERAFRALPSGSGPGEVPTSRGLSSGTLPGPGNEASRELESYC
Description: as §1

[1] = read-out: hGCGR EC50, nM (SEM, n)
[2] = HEK293, percent of maximal response to GIP(1-42)NH2, read-out: hGIPR Emax, % ± SEM
[3] = read-out: hGIPR EC50, nM (SEM, n)

T1 sequence (P47871 26-477): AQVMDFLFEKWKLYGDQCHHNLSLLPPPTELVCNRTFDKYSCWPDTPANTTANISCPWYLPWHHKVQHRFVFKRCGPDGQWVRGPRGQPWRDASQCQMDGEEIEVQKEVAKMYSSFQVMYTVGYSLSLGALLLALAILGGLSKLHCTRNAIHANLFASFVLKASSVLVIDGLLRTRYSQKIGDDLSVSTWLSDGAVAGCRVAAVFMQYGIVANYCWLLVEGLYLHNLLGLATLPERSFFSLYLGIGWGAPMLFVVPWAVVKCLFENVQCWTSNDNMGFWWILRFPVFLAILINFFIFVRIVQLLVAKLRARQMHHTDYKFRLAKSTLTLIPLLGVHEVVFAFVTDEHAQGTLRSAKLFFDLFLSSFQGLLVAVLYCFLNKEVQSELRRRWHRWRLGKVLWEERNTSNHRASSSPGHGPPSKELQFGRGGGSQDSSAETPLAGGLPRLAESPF

Compound: CC[C@H](C)[C@H](NC(=O)[C@H](CC(C)C)NC(=O)[C@](C)(Cc1ccc(O)cc1)NC(=O)[C@@H](CCC(=O)O)NC(=O)[C@@H](NC(=O)[C@H](Cc1ccccc1)NC(=O)[C@H](CCC(=O)O)NC(=O)C(C)(C)NC(=O)[C@H](CCC(N)=O)NC(=O)[C@H](C)NC(=O)[C@H](CCCCNC(=O)COCCOCCNC(=O)COCCOCCNC(=O)CC[C@H](NC(=O)CCCCCCCCCCCCC(=O)O)C(=O)O)NC(=O)CNC(=O)[C@H](CC(=O)O)NC(=O)[C@H](CC(C)C)NC(=O)[C@](C)(CC(C)C)NC(=O)[C@@H](NC(=O)[C@H](CO)NC(=O)[C@H](Cc1ccncc1)NC(=O)[C@H](CC(=O)O)NC(=O)[C@H](CO)NC(=O)[C@@H](NC(=O)[C@](C)(Cc1ccccc1F)NC(=O)[C@@H](NC(=O)CNC(=O)[C@H](CCC(=O)O)NC(=O)C(C)(C)NC(=O)[C@@H](N)Cc1ccc(O)cc1)[C@@H](C)O)[C@@H](C)O)[C@@H](C)CC)[C@@H](C)CC)C(=O)N[C@@H](CCC(=O)O)C(=O)NCC(=O)NCC(=O)N[C@@H](CCCCNC(=O)COCCOCCNC(=O)COCCOCCNC(=O)CC[C@H](NC(=O)CCCCCCCCCCCCC(=O)O)C(=O)O)C(=O)N[C@@H](CO)C(=O)N[C@@H](CO)C(=O)NCC(=O)N[C@@H](C)C(=O)N1CCC[C@H]1C(=O)N1CCC[C@H]1C(=O)N1CCC[C@H]1C(=O)N[C@@H](CO)C(N)=O [Example 101]
- EC50 (hGCGR; [1]): > 9950 nM
- Emax (hGIPR; [2]): 92.1%

Compound: CC[C@H](C)[C@H](NC(=O)[C@H](CCCN)NC(=O)[C@H](CC(=O)O)NC(=O)[C@H](CC(C)C)NC(=O)[C@](C)(CC(C)C)NC(=O)[C@@H](NC(=O)[C@H](CO)NC(=O)[C@H](CCCCNC(=O)COCCOCCNC(=O)COCCOCCNC(=O)CC[C@H](NC(=O)CCCCCCCCCCCCC(=O)O)C(=O)O)NC(=O)[C@H](CC(=O)O)NC(=O)[C@H](CO)NC(=O)[C@@H](NC(=O)[C@](C)(Cc1ccccc1F)NC(=O)[C@@H](NC(=O)CNC(=O)[C@H](CCC(=O)O)NC(=O)C(C)(C)NC(=O)[C@@H](N)Cc1ccc(O)cc1)[C@@H](C)O)[C@@H](C)O)[C@@H](C)CC)C(=O)N[C@@H](C)C(=O)N[C@@H](CCC(N)=O)C(=O)NC(C)(C)C(=O)N[C@@H](CCC(=O)O)C(=O)N[C@@H](Cc1ccccc1)C(=O)N[C@H](C(=O)N[C@@H](CCCCNC(=O)COCCOCCNC(=O)COCCOCCNC(=O)CC[C@H](NC(=O)CCCCCCCCCCCCC(=O)O)C(=O)O)C(=O)N[C@@](C)(Cc1ccc(O)cc1)C(=O)N[C@@H](CC(C)C)C(=O)N[C@H](C(=O)N[C@@H](CCC(=O)O)C(=O)NCC(=O)NCC(=O)N1CCC[C@H]1C(=O)N[C@@H](CO)C(=O)N[C@@H](CO)C(=O)NCC(=O)N[C@@H](C)C(=O)N1CCC[C@H]1C(=O)N1CCC[C@H]1C(=O)N1CCC[C@H]1C(=O)N[C@@H](CO)C(N)=O)[C@@H](C)CC)[C@@H](C)CC [Example 106]
- EC50 (hGCGR; hGCGR EC50, nM (SEM, n)): > 9950 nM
- Emax (hGIPR; HEK293, read-out: hGIPR Emax, % ± SEM, percent of maximal response to GIP(1-42)NH2): 98.7 ± 3.32%
- EC50 (hGIPR; hGIPR EC50, nM (SEM, n)): 0.0385 nM

Compound: CC[C@H](C)[C@H](NC(=O)[C@H](CCCN)NC(=O)[C@H](CC(=O)O)NC(=O)[C@H](CC(C)C)NC(=O)[C@](C)(CC(C)C)NC(=O)[C@@H](NC(=O)[C@H](CO)NC(=O)[C@H](CCCCNC(=O)COCCOCCNC(=O)COCCOCCNC(=O)CC[C@H](NC(=O)CCCCCCCCCCCCC(=O)O)C(=O)O)NC(=O)[C@H](CC(=O)O)NC(=O)[C@H](CO)NC(=O)[C@@H](NC(=O)[C@](C)(Cc1ccccc1F)NC(=O)[C@@H](NC(=O)CNC(=O)[C@H](CCC(=O)O)NC(=O)C(C)(C)NC(=O)[C@@H](N)Cc1ccc(O)cc1)[C@@H](C)O)[C@@H](C)O)[C@@H](C)CC)C(=O)N[C@@H](C)C(=O)N[C@@H](CCC(N)=O)C(=O)NC(C)(C)C(=O)N[C@@H](CCCCNC(=O)COCCOCCNC(=O)COCCOCCNC(=O)CC[C@H](NC(=O)CCCCCCCCCCCCC(=O)O)C(=O)O)C(=O)N[C@@](C)(Cc1ccccc1)C(=O)N[C@H](C(=O)N[C@H](CCC(=O)O)C(=O)N[C@@](C)(Cc1ccc(O)cc1)C(=O)N[C@@H](CC(C)C)C(=O)N[C@H](C(=O)N[C@@H](CCC(=O)O)C(=O)NCC(=O)NCC(=O)N1CCC[C@H]1C(=O)N[C@@H](CO)C(=O)N[C@@H](CO)C(=O)NCC(=O)N[C@@H](C)C(=O)N1CCC[C@H]1C(=O)N1CCC[C@H]1C(=O)N1CCC[C@H]1C(=O)N[C@@H](CO)C(N)=O)[C@@H](C)CC)[C@@H](C)CC [Example 109]
- EC50 (hGCGR; [1]): > 9950 nM
- Emax (hGIPR; [2]): 84.8%
- EC50 (hGIPR; [3]): 0.0236 nM

Compound: CC[C@H](C)[C@H](NC(=O)[C@H](CCCN)NC(=O)[C@H](CC(=O)O)NC(=O)[C@H](CC(C)C)NC(=O)[C@](C)(CC(C)C)NC(=O)[C@@H](NC(=O)[C@H](CO)NC(=O)[C@H](CCCCNC(=O)COCCOCCNC(=O)COCCOCCNC(=O)CC[C@H](NC(=O)CCCCCCCCCCCCC(=O)O)C(=O)O)NC(=O)[C@H](CC(=O)O)NC(=O)[C@H](CO)NC(=O)[C@@H](NC(=O)[C@](C)(Cc1ccccc1F)NC(=O)[C@@H](NC(=O)CNC(=O)[C@H](CCC(=O)O)NC(=O)C(C)(C)NC(=O)[C@@H](N)Cc1ccc(O)cc1)[C@@H](C)O)[C@@H](C)O)[C@@H](C)CC)C(=O)N[C@@H](C)C(=O)N[C@@H](CCC(N)=O)C(=O)NC(C)(C)C(=O)N[C@@H](CCC(=O)O)C(=O)N[C@@](C)(Cc1ccccc1)C(=O)N[C@H](C(=O)N[C@H](CCC(=O)O)C(=O)N[C@@](C)(Cc1ccc(O)cc1)C(=O)N[C@@H](CC(C)C)C(=O)N[C@H](C(=O)N[C@@H](CCC(=O)O)C(=O)NCC(=O)NCC(=O)N[C@@H](CCCCNC(=O)COCCOCCNC(=O)COCCOCCNC(=O)CC[C@H](NC(=O)CCCCCCCCCCCCC(=O)O)C(=O)O)C(=O)N[C@@H](CO)C(=O)N[C@@H](CO)C(=O)NCC(=O)N[C@@H](C)C(=O)N1CCC[C@H]1C(=O)N1CCC[C@H]1C(=O)N1CCC[C@H]1C(=O)N[C@@H](CO)C(N)=O)[C@@H](C)CC)[C@@H](C)CC [Example 112]
- EC50 (hGCGR; [1]): > 9950 nM
- Emax (hGIPR; [2]): 93.6%
- EC50 (hGIPR; [3]): 0.0229 nM

Compound: CC[C@H](C)[C@H](NC(=O)[C@H](CC(C)C)NC(=O)[C@](C)(Cc1ccc(O)cc1)NC(=O)[C@@H](CCC(=O)O)NC(=O)[C@@H](NC(=O)[C@H](Cc1ccccc1)NC(=O)[C@H](CCC(=O)O)NC(=O)C(C)(C)NC(=O)[C@H](CCC(N)=O)NC(=O)[C@H](C)NC(=O)[C@H](CCCCNC(=O)COCCOCCNC(=O)COCCOCCNC(=O)CC[C@H](NC(=O)CCCCCCOc1ccc(C(=O)O)cc1)C(=O)O)NC(=O)[C@H](CCCN)NC(=O)[C@H](CC(=O)O)NC(=O)[C@H](CC(C)C)NC(=O)[C@](C)(CC(C)C)NC(=O)[C@@H](NC(=O)[C@H](CO)NC(=O)[C@H](Cc1ccncc1)NC(=O)[C@H](CC(=O)O)NC(=O)[C@H](CO)NC(=O)[C@@H](NC(=O)[C@](C)(Cc1ccccc1F)NC(=O)[C@@H](NC(=O)CNC(=O)[C@H](CCC(=O)O)NC(=O)C(C)(C)NC(=O)[C@@H](N)Cc1ccc(O)cc1)[C@@H](C)O)[C@@H](C)O)[C@@H](C)CC)[C@@H](C)CC)C(=O)N[C@@H](CCC(=O)O)C(=O)NCC(=O)NCC(=O)N[C@@H](CCCCNC(=O)COCCOCCNC(=O)COCCOCCNC(=O)CC[C@H](NC(=O)CCCCCCOc1ccc(C(=O)O)cc1)C(=O)O)C(=O)N[C@@H](CO)C(=O)N[C@@H](CO)C(=O)NCC(=O)N[C@@H](C)C(=O)N1CCC[C@H]1C(=O)N1CCC[C@H]1C(=O)N1CCC[C@H]1C(=O)N[C@@H](CO)C(N)=O [Example 125]
- EC50 (hGCGR; [1]): > 9950 nM
- Emax (hGIPR; [2]): 94.4%
- EC50 (hGIPR; [3]): 0.0547 nM
